Counter-ions that a name gives are not always drawn.
Tested on: Gli1 transcript in Daoy cells (Shh signaling)
Assay: Functional assay for measuring the inhibition of Gli1 in Daoy cells (bDNA assay of Gli1 transcript after Shh-conditioned media stimulation)
Assay type: cell-based
Conditions: Homo sapiens; Daoy cells stimulated with Shh-CM, 24 hours incubation with compound, Gli1 bDNA luminescence
Method: Biological activity is determined using a functional assay in Daoy neuronal cancer cells and measures levels of Gli1 ribonucleic acid via a bDNA (branched deoxyribonucleic acid) assay system (Panomics, Inc., Fremont, Calif.). Gli was originally discovered in a Glioblastoma cell line and encodes a zinc finger protein that is activated by Shh signaling. The maximum response is obtained by inducing Gli1 transcription in the Daoy cells with conditioned medium (human embryonic kidney, HEK-293 cells stably expressing recombinant Shh) for 24 hours and then measuring the amount of stimulated Gli1 transcript. […]
The bDNA assay system utilizes the technology of branched-chain DNA to allow amplification of a target ribonucleic acid (transcript). […] The addition of a chemilumigenic substrate during the amplification step allows for detection using luminescence. […]
Daoy cells are grown to confluency in tissue culture T225-flasks in Daoy growth media containing Minimum Essential Medium (MEM) plus 10% Fetal Bovine Serum (FBS) with […] non-essential amino acids and 1 mM sodium pyruvate. The cells are removed from the T225-flasks using trypsin ethylenediaminetetraacetic acid (EDTA), centrifuged, resuspended in media, and then counted. […]

IC50 [nM]	Structure (SMILES)
~1.27	Cc1c(-c2ccc(C#N)cc2)nnc(N2CCC(N(C)C(=O)c3cccnc3C(F)(F)F)CC2)c1C [Example 14, N-(1-(6-(4-Cyanophenyl)-4,5-dimethylpyridazin-3-yl)piperidin-4-yl)-N-methyl-2-(trifluoromethyl)nicotinamide dihydrochloride]
~1.22	Cc1c(-c2ccc(F)cc2)nnc(N2CCC(N(C)C(=O)[C@@H]3CCCCN3)CC2)c1C [Example 34, (S)-N-(1-(6-(4-Fluorophenyl)-4,5-dimethylpyridazin-3-yl)piperidin-4-yl)-N-methylpiperidine-2-carboxamide dihydrochloride]
